Measured values taken from PubChem BioAssay AID250 (DTP/NCI, 2004).
“And” between values parts separate entries of the source, which are not always exact repeats. Equal values may be shown once. Toxic doses and inconclusive results are not listed. Rule for the calls: active = survival T/C of 150% or more; inactive = T/C below 125% in these data.

Tested on: BDF1 mice, L1210 leukemia sc, survival T/C
Test: NCI In Vivo Anticancer Drug Screen. Data for tumor model L1210 Leukemia (subcutaneous) in B6D2F1 (BDF1) mice
Conditions: endpoint: median survival time, higher = longer survival
Protocol: The antitumor activity of compounds was measured in mice bearing transplantable tumors. Survival or tumor size were measured and the results are expressed as the measurement made in the treated group (T) divided by the measurement made in the vehicle treated control group (C). The tumor model used in this assay is L1210 Leukemia (subcutaneous) in B6D2F1 (BDF1) mice

[1] = dose: 65.0 mg/kg/injection, schedule: Q01DX Z (sc), vehicle: carboxymethylcellulose (CMC)
[2] = dose: 108.0 mg/kg/injection, schedule: Q01DX Z (sc), vehicle: carboxymethylcellulose (CMC)
[3] = dose: 180.0 mg/kg/injection, schedule: Q01DX Z (sc), vehicle: carboxymethylcellulose (CMC)
[4] = dose: 300.0 mg/kg/injection, schedule: Q01DX Z (sc), vehicle: carboxymethylcellulose (CMC)
[5] = dose: 500.0 mg/kg/injection, schedule: Q01DX Z (sc), vehicle: carboxymethylcellulose (CMC)
[6] = dose: 833.0 mg/kg/injection, schedule: Q01DX Z (sc), vehicle: carboxymethylcellulose (CMC)
[7] = dose: 39.0 mg/kg/injection, schedule: Q01DX Z (sc), vehicle: carboxymethylcellulose (CMC)
[8] = dose: 14.0 mg/kg/injection, schedule: Q01DX Z (sc), vehicle: methylcellulose (MC)
[9] = dose: 65.0 mg/kg/injection, schedule: Q01DX Z (sc), vehicle: methylcellulose (MC)
[10] = dose: 39.0 mg/kg/injection, schedule: Q01DX Z (sc), vehicle: saline
[11] = dose: 65.0 mg/kg/injection, schedule: Q01DX Z (sc), vehicle: saline
[12] = dose: 108.0 mg/kg/injection, schedule: Q01DX Z (sc), vehicle: saline
[13] = dose: 180.0 mg/kg/injection, schedule: Q01DX Z (sc), vehicle: saline
[14] = dose: 300.0 mg/kg/injection, schedule: Q01DX Z (sc), vehicle: saline
[15] = dose: 500.0 mg/kg/injection, schedule: Q01DX Z (sc), vehicle: saline
[16] = dose: 833.0 mg/kg/injection, schedule: Q01DX Z (sc), vehicle: saline
[17] = dose: 5.0 mg/kg/injection, schedule: Q01DX Z (sc), vehicle: methylcellulose (MC)
[18] = dose: 8.4 mg/kg/injection, schedule: Q01DX Z (sc), vehicle: methylcellulose (MC)
[19] = dose: 39.0 mg/kg/injection, schedule: Q01DX Z (sc), vehicle: methylcellulose (MC)

Measured: T/C

Cc1c(O)ccc(=O)n1O
inactive: [1] 100 % of control | [2] 100 % of control | [3] 100 % of control | [4] 100 % of control | [5] 100 % of control

O=C1C(NC(=O)C2CCCCC2)=C(N2CC2)C(=O)C(NC(=O)C2CCCCC2)=C1N1CC1
inactive: [3] 100 % of control | [4] 100 % of control | [5] 100 % of control | [6] 100 % of control | dose: 1388.0 mg/kg/injection, schedule: Q01DX Z (sc), vehicle: carboxymethylcellulose (CMC) 100 % of control

COc1cc2c3c(c4ccc(OC)c(OC)c4c2cc1OC)CN1CCC[C@@H]1C3
inactive: dose: 3.0 mg/kg/injection, schedule: Q01DX Z (sc), vehicle: carboxymethylcellulose (CMC) 100 % of control | dose: 5.0 mg/kg/injection, schedule: Q01DX Z (sc), vehicle: carboxymethylcellulose (CMC) 100 % of control | dose: 8.4 mg/kg/injection, schedule: Q01DX Z (sc), vehicle: carboxymethylcellulose (CMC) 100 % of control | dose: 14.0 mg/kg/injection, schedule: Q01DX Z (sc), vehicle: carboxymethylcellulose (CMC) 95 % of control | dose: 23.0 mg/kg/injection, schedule: Q01DX Z (sc), vehicle: carboxymethylcellulose (CMC) 90 % of control and 105 % of control | [7] 100 % of control | [1] 110 % of control | [2] 105 % of control | [3] 115 % of control

Nc1ccc(OC(=O)Oc2ccc(N)cc2)cc1
inactive: [3] 111 % of control | [6] 100 % of control

COc1cc([C@@H]2c3cc4c(cc3[C@@H](OC3OC5COC(C)OC5C(O)C3O)[C@H]3COC(=O)[C@H]23)OCO4)cc(OC)c1O (stereo partly specified)
active: dose: 8.0 mg/kg/injection, schedule: Q01DX009 (ip), vehicle: Klucel (hydroxypropylcellulose) (HPC) 160 % of control
inactive: dose: 2.0 mg/kg/injection, schedule: Q01DX009 (ip), vehicle: Klucel (hydroxypropylcellulose) (HPC) 120 % of control | dose: 16.0 mg/kg/injection, schedule: Q01DX009 (ip), vehicle: Klucel (hydroxypropylcellulose) (HPC) 105 % of control

ClCCN(CCCl)c1ccc(CCNc2ccnc3cc(Cl)ccc23)cc1
inactive: [8] 100 % of control | [9] 100 % of control

C[C@H](N)C(=O)N[C@@H]1[C@H]2C(=C(O)C[C@@H](O)[C@@H]2O)C(=O)O[C@@H]1C
active: [16] 163 % of control | dose: 1800.0 mg/kg/injection, schedule: Q01DX Z (sc), vehicle: saline 150 % of control
inactive: [10] 109 % of control | [11] 109 % of control | [12] 100 % of control | [13] 100 % of control and 104 % of control | dose: 180.0 mg/kg/injection, schedule: Q#A X Z (sc), vehicle: saline 103 % of control | [14] 100 % of control and 109 % of control | dose: 300.0 mg/kg/injection, schedule: Q#A X Z (sc), vehicle: saline 107 % of control | dose: 389.0 mg/kg/injection, schedule: Q01DX Z (sc), vehicle: saline 112 % of control | [15] 107 % of control and 118 % of control | dose: 500.0 mg/kg/injection, schedule: Q#A X Z (sc), vehicle: saline 103 % of control | dose: 1388.0 mg/kg/injection, schedule: Q#A X Z (sc), vehicle: saline 115 % of control

CC[n+]1c(-c2ccccc2)c2cc(N)ccc2c2ccc(N)cc21
inactive: [7] 110 % of control | [1] 115 % of control | [2] 95 % of control

CS(=O)(=O)OCCCNCCCOS(C)(=O)=O
inactive: dose: 15.0 mg/kg/injection, schedule: Q01DX009 (sc), vehicle: saline 111 % of control | dose: 30.0 mg/kg/injection, schedule: Q01DX009 (sc), vehicle: saline 108 % of control | dose: 39.0 mg/kg/injection, schedule: Q04DX003 (ip), vehicle: saline 118 % of control | dose: 180.0 mg/kg/injection, schedule: Q04DX003 (ip), vehicle: saline 93 % of control

OC(C1CO1)C(O)C1CO1 (stereo unspecified)
inactive: dose: 0.12 mg/kg/injection, schedule: Q01DX009 (ip), vehicle: saline 98 % of control | dose: 0.25 mg/kg/injection, schedule: Q01DX009 (ip), vehicle: saline 107 % of control | dose: 0.5 mg/kg/injection, schedule: Q01DX009 (ip), vehicle: saline 107 % of control | dose: 1.0 mg/kg/injection, schedule: Q01DX009 (ip), vehicle: saline 122 % of control | dose: 1.0 mg/kg/injection, schedule: Q01DX009 (ip), vehicle: water 116 % of control | dose: 1.0 mg/kg/injection, schedule: Q01DX009 (sc), vehicle: water 122 % of control | dose: 2.0 mg/kg/injection, schedule: Q04DX003 (ip), vehicle: water 111 % of control | dose: 4.0 mg/kg/injection, schedule: Q01DX009 (ip), vehicle: saline 118 % of control | dose: 8.0 mg/kg/injection, schedule: Q04DX003 (ip), vehicle: water 88 % of control | dose: 8.0 mg/kg/injection, schedule: Q04DX003 (sc), vehicle: water 116 % of control
active: dose: 2.0 mg/kg/injection, schedule: Q01DX009 (ip), vehicle: saline 150 % of control | dose: 2.0 mg/kg/injection, schedule: Q01DX009 (sc), vehicle: water 150 % of control | dose: 4.0 mg/kg/injection, schedule: Q04DX003 (ip), vehicle: water 155 % of control | dose: 4.0 mg/kg/injection, schedule: Q04DX003 (sc), vehicle: water 161 % of control

CN(C)c1nc(N(C)C)nc(N(C)C)n1
inactive: [10] 100 % of control | [11] 100 % of control | [12] 100 % of control | [13] 100 % of control | [14] 95 % of control and 105 % of control | [15] 95 % of control | [16] 110 % of control | dose: 1388.0 mg/kg/injection, schedule: Q01DX Z (sc), vehicle: saline 100 % of control

Cn1c(O)c(N=NC(N)=S)c2ccccc21
inactive: [17] 100 % of control | [18] 100 % of control | [8] 100 % of control | dose: 23.0 mg/kg/injection, schedule: Q01DX Z (sc), vehicle: methylcellulose (MC) 100 % of control | [19] 100 % of control | [9] 100 % of control | dose: 108.0 mg/kg/injection, schedule: Q01DX Z (sc), vehicle: methylcellulose (MC) 100 % of control | dose: 180.0 mg/kg/injection, schedule: Q01DX Z (sc), vehicle: methylcellulose (MC) 100 % of control

Cn1cnc([N+](=O)[O-])c1Sc1ncnc2nc[nH]c12
active: dose: 500.0 mg/kg/injection, schedule: Q01DX Z (oral), vehicle: methylcellulose (MC) 155 % of control
inactive: dose: 3.0 mg/kg/injection, schedule: Q01DX Z (oral), vehicle: methylcellulose (MC) 100 % of control | [17] 100 % of control | [18] 100 % of control | [8] 100 % of control | dose: 23.0 mg/kg/injection, schedule: Q01DX Z (oral), vehicle: methylcellulose (MC) 100 % of control | dose: 28.0 mg/kg/injection, schedule: Q01DX Z (sc), vehicle: methylcellulose (MC) 110 % of control | dose: 39.0 mg/kg/injection, schedule: Q01DX Z (oral), vehicle: methylcellulose (MC) 100 % of control | [19] 100 % of control | dose: 47.0 mg/kg/injection, schedule: Q01DX Z (sc), vehicle: methylcellulose (MC) 115 % of control | dose: 65.0 mg/kg/injection, schedule: Q01DX Z (oral), vehicle: methylcellulose (MC) 100 % of control | dose: 78.0 mg/kg/injection, schedule: Q01DX Z (sc), vehicle: methylcellulose (MC) 120 % of control | dose: 360.0 mg/kg/injection, schedule: Q01DX Z (sc), vehicle: methylcellulose (MC) 110 % of control | dose: 500.0 mg/kg/injection, schedule: Q01DX Z (sc), vehicle: methylcellulose (MC) 122 % of control | dose: 600.0 mg/kg/injection, schedule: Q01DX Z (sc), vehicle: methylcellulose (MC) 105 % of control
